{"source": "paper PMC3530156", "about": "(Chemistry & biology, 2012)", "key": {"Bacillus subtilis PY79": {"system": "Bacillus subtilis PY79", "experiment": "MIC, overnight culture/serial dilution assay", "assay_type": "cell-based", "conditions": "overnight serial dilution culture, purified compound"}, "[1]": {"system": "B. subtilis BSZ-9 (L11 knockout)", "conditions": "colonies of M1152 + pSETGE1 overlaid with B. subtilis BSZ-9, resistant to 26-membered thiopeptides"}}, "data": [{"substance": "GE37468", "values": [{"measurement": "MIC B. subtilis", "setting": "Bacillus subtilis PY79", "value": 0.016, "unit": "µg/mL"}, {"measurement": "resistance of overlaid strain", "setting": "[1]", "value": "Neither BSZ-9 nor B. cereus ATCC 15479 exhibited resistance"}]}]}
